Measured values from PubChem BioAssay (NCI).
Several values for one entry are separate records, joined by “and”; a condition that tells them apart may be missing. Equal entries are not always repeated.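 Briefly, cells in 96-well plates were exposed to five compound concentrations for 48 h, and endpoints were estimated by linear interpolation. Here, GI50 denotes the concentration required for 50% inhibition of growth. TGI is the concentration that stops growth completely.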

Legend:
Assay in all cases: DTP human tumour cell line panel, 48 h
[1] = system: 786-0 renal
[2] = system: COLO 205 colon
[3] = system: OVCAR-4 ovarian
[4] = system: OVCAR-5 ovarian
[5] = system: OVCAR-8 ovarian
[6] = system: TK-10 renal
[7] = system: UACC-257 melanoma
[8] = system: UACC-62 melanoma
[9] = system: UO-31 renal
[10] = system: NCI/ADR-RES ovarian

Row | Compound | TGI [1] [µM] | TGI [2] [µM] | TGI [3] [µM] | TGI [4] [µM] | TGI [5] [µM] | TGI [6] [µM] | TGI [7] [µM] | TGI [8] [µM] | TGI [9] [µM] | GI50 [1] [µM] | GI50 [3] [µM] | GI50 [5] [µM] | GI50 [6] [µM] | GI50 [7] [µM] | GI50 [8] [µM] | GI50 [9] | GI50 [2] [µM] | GI50 [10] [µM] | TGI [10] [µM] | GI50 [4] [µM]
1 | Nc1ncnc2c1ncn2COC/C=C/I | > 100 | > 100 | > 100 | > 100 | > 100 | > 100 | > 100 | > 100 | > 100 | – | – | – | – | – | – | – | – | – | – | –
2 | NC(=S)N=Nc1c(O)[nH]c2ccccc12 | 296 | > 1000 | > 1000 | – | 846 | 326 | > 1000 | 497 | 504 | 142 | 239 | 234 | 165 | 804 | 209 | 39 µM and 126 µM | – | – | – | –
3 | COc1ccc2c(c1)O/C(=C\c1ccc([N+](=O)[O-])s1)C2=O | > 71.6 | > 100 | 4.91 | – | > 100 | > 100 | > 100 | – | – | 11.4 | 1.59 | 2.19 | > 22.5 | – | – | – | 1.88 | 4.52 | > 100 | –
4 | CCOc1cc[n+](C(=C=[N-])C#N)cc1 | > 100 | > 100 | > 100 | > 100 | > 100 | > 100 | > 100 | > 100 | > 100 | – | – | – | – | – | – | – | – | – | – | –
5 | O=S1(=O)C=C(c2ccccc2)C(c2ccccc2)=C1 | 2.82 | 3.61 | 3.82 | 3.14 | 3.19 | – | 2.96 | 3.64 | 2.6 | 1.49 | 1.9 | 1.56 | – | 1.52 | 1.73 | 1.15 µM | 1.77 | 2.73 | 9.31 | 1.69
6 | N#CCCn1c(CCC(=O)Nc2ccc(Cl)cc2Cl)n[nH]c1=S | > 100 | > 100 | > 100 | > 100 | > 100 | > 100 | > 100 | > 100 | > 100 | – | – | – | – | – | – | – | – | – | – | –
7 | Cc1ccc(SSCCCCS(=O)O)cc1 | > 100 | 39.7 | 32 | 96.3 | – | 46.8 | 53.3 | 42.6 | 39.8 | – | – | – | – | – | – | – | – | – | – | –
8 | Cc1ccccc1NC(=O)CC(=O)n1nc(-c2ccccc2)c(N=Nc2ccc([N+](=O)[O-])cc2)c1-c1ccccc1 | 67.1 | 30.5 | > 100 | > 100 | > 100 | > 100 | 56.4 | 29.6 | 34.8 | – | – | – | – | – | – | – | – | – | – | –
9 | N#CC1C(=O)NC(=O)C(C#N)C1c1ccc(Cl)c(Cl)c1 (stereo not drawn) | 41.7 | > 100 | > 100 | 68.6 | > 100 | 98.4 | 86.7 | – | 33.2 | – | – | – | – | – | – | – | – | – | 83.1 | –
10 | CCOc1ccccc1NC(=O)C(=O)c1c(O)c2ccc(O)cc2oc1=O | > 100 | > 100 | > 100 | > 100 | > 100 | > 100 | > 100 | > 100 | > 100 | – | – | – | – | – | – | – | – | – | – | –
